Experimental data from US20170234881A1, “METHODS OF DIAGNOSING AND TREATING CANCER” (INSERM ( INSTITUT NATIONAL DE LA SANTÉ ET DE LA RECHERCHE …, priority 2014, published 2017).

Assays:
TS/A tumors = test: Growth of TS/A tumors implanted s.c. into mice; type: in vivo
Protocol: FIG. 2. OCDO is a tumor promoter in vitro and in vivo and its inhibition contributes to the anti-tumor effects of Tam and DDA. (A, B) Histograms representing the effect of OCDO or 17β-estrogen (E2) on MCF7 (A) and TS/A (B) cell proliferation after 24 h treatment using a colorimetric immunoassay measuring BrDU incorporation in DNA (C, D) Histogram representing the effect of OCDO on MCF7 (C) and TS/A (D) cell invasion. Data are the mean of three separate experiments (±s.e.m), *P<0.05, **P<0.01, ***P<0.001 (Student's t-test). (E, F) Mice were implanted s.c. with MCF7 (E) or TS/A (F) cells and animals (8 per group) were treated s.c. every day starting on the day of implantation with either the solvent vehicle or OCDO (16 μg/kg for MCF7 or 50 μg/kg for TS/A). Animals were monitored for tumour growth twice a week. The data are representative of three independent experiments. The mean tumor volume±s.e.m is shown, *P<0.05, **P<0.01, ***P<0.001 (analysis of variance (ANOVA), Dunnett's post test). (G) Mean (±s.e.m) of Ki67 positive cell number determined from IHC staining of MCF7 tumor sections from (E), n=8, *P<0.05 (Student's t-test) using HistoQuant, Pannoramic Viewer (3DHistech). (H) Representative Ki67 staining of TS/A tumor sections from (F) showing increased staining in OCDO-treated tumor compared with control-treated tumor. (I, J, K). Murine E0771(I), or human MDA-MB231 (J) or MDA-MB468 (K) cells implanted s.c. into mice (8 per group) and animals were treated s.c. with either the solvent vehicle or OCDO (16 μg/kg for MDA-MB-231 and MDA-MB-468 or 50 μg/kg for E0771). The data are representative of two independent experiments. Statistical analysis was performed as in E and F. (L) Mice were implanted s.c. with TS/A cells and animals (8 per group) were treated s.c. every day with either the solvent vehicle, OCDO (50 μg/kg), Tam (56 mg/kg), DDA (20 mg/kg) or the combination of Tam (56 mg/kg) +OCDO (50 μg/kg) or DDA (20 mg/kg)+OCDO (50 μg/kg). The data are representative of three independent experiments. Statistical analysis was performed as in E and F.
Exponentially growing MCF7, ShMCF7, E0771, MDA-MB231, MDA-MB468 and TS/A cells were collected, washed twice in PBS and resuspended in PBS. TS/A and E9771 tumours were prepared by subcutaneous transplantation of 35×10^3 cells or 3×10^5 cells respectively in 100 μl PBS into the flank of BALB/c or C57B16 mice. For other tumors, 5 to 10×10^6 cells in 200 μl PBS/matrigel (1/1) were injected into the flank of NMRI nude mice. Animals were treated as indicated in the legends. Animals were examined daily, and body weights were measured twice per week. In all the experiments, the tumor volume was determined by direct measurement with a caliper and was calculated using the formula (width^2×length)/2. Tumors were either frozen in liquid nitrogen or fixed in 10% neutral-buffered formalin and embedded in paraffin for immunohistochemical analysis. Paraffin sections were stained with haematoxylin and eosin for histomorphological analyses. Immunohistochemical staining was done on paraffin-embedded tissue sections, using a specific Ki67 antibody (Dako).
We then assayed the anti-growth effect of Tam or DDA against TS/A tumors in the absence and presence of OCDO. As above, TS/A tumors implanted into immunocompetent mice were treated s.c. every day either with either the solvent vehicle (control), OCDO (50 μg/kg), Tam (56 mg/kg), DDA (20 mg/kg) or the combination of Tam (56 mg/kg)+OCDO (50 μg/kg) or DDA (20 mg/kg) +OCDO (50 μg/kg).

TS/A cells = test: Cell proliferation assay (BrDU incorporation), TS/A; type: cell-based, mouse; conditions: TS/A cells treated 24 h, concentration-dependent, level reached
Protocol: FIG. 2. OCDO is a tumor promoter in vitro and in vivo and its inhibition contributes to the anti-tumor effects of Tam and DDA. (A, B) Histograms representing the effect of OCDO or 17β-estrogen (E2) on MCF7 (A) and TS/A (B) cell proliferation after 24 h treatment using a colorimetric immunoassay measuring BrDU incorporation in DNA (C, D) Histogram representing the effect of OCDO on MCF7 (C) and TS/A (D) cell invasion. Data are the mean of three separate experiments (±[…]) Mice were implanted s.c. with MCF7 (E) or TS/A (F) cells and animals (8 per group) were treated s.c. every day starting on the day of implantation with either the solvent vehicle or OCDO (16 μg/kg for MCF7 or 50 μg/kg for TS/A). Animals were monitored for tumour growth twice a week. The data are representative of three independent experiments. The mean tumor volume±s.e.m is shown, *P<0.05, **P<0.01, ***P<0.001 (analysis of variance (ANOVA), Dunnett's post test). […] (I, J, K). Murine […], or human MDA-MB231 (J) or MDA-MB468 (K) cells implanted s.c. into mice (8 per group) and animals were treated s.c. with either the solvent vehicle or OCDO (16 μg/kg for MDA-MB-231 and MDA-MB-468 or 50 μg/kg for E0771). […] At the end of this time, cells were incubated with BrDU for an additional 8 h and then evaluated for proliferation using the ELISA kit, Roche Diagnostic, as indicated by the manufacturer.

`CC(C)CCC[C@@H](C)[C@H]1CC[C@H]2[C@@H]3CC(=O)[C@@]4(O)C[C@@H](O)CC[C@]4(C)[C@H]3CC[C@]12C` [OCDO, 6-oxo-cholestan-3β,5α-diol] was tested, and the “tumor growth compared with the control group” value (TS/A tumors; TS/A tumors in immunocompetent mice, OCDO 50 μg/kg s.c. every day) was “significantly increased”, the “proliferative marker Ki67 in tumors compared with control-treated tumors” value (TS/A tumors; TS/A tumors, IHC) was “increased” and the “enhancement of TS/A tumor growth compared with the control group” value (TS/A tumors; after 13 days of treatment, OCDO 50 μg/kg s.c. every day, p<0.01) was 140%. The “growth rate (cell proliferation) relative to the control” value (TS/A cells) was 1.7 fold.
